The record followed here is patent US8099262B2, “Estimation of clinical cut-offs” (priority 2004, dated 2012).

The subject of assay [1] is HIV. The conditions noted are these: Definition 3.
Description: This methodology constructs tree-structured rules in order to classify patients as successes (undetectable pathogen load after treatment) and failures. […] Imbalances for such parameters may therefore influence the decision taken for a certain parameter.
The classification tree poses queries, in which the answer to each query results in either the left or the right branch of the tree being taken at each stage. […] If yes, the left branch is taken, if no the right branch is taken. As with the methods of the aspects of the invention described previously, the other factors queried include the log baseline pathogen load and the phenotypic sensitivity score. The numbers at the termini of the final branches represent the response rate (1=100% response).
The clinical cut-off is chosen as the fold change that makes the difference between the two groups as large as possible.
In the classification trees model, tree-structured rules were constructed in order to classify patients in successes (undetectable viral load after treatment) and failures. The same parameters as for the other techniques were considered.
This implies that imbalances for other parameters may influence the decision taken for a certain parameter.
Definition 3 was a variant of definition 2.
Using definition 3, breakpoints determined by classification trees are applicable only to a subset of patients unless fold change is selected at the first tree node.
Assay [2] relates to HIV. It is filed as in vivo. From the text:
Further factors which may be taken into account when validating the model are the odds ratios determined using clinical cutoffs compared to those determined using biological cutoffs. These ratios represent the odds of being a responder in the group that is labeled resistant by the cutoffs divided by the odds of being a responder in the group that is labeled sensitive by the cutoffs. In this way it is possible to evaluate how well the cutoffs perform on a drug by drug basis. The further away that the odds ratio is from 1, the stronger the correlation between the resistance class and clinical outcome. The odds ratio as specified above yield numbers smaller than 1 as the odds of being a responder should be smaller in the higher resistance class. Put another way, the probability of response will decrease as the resistance increases. Additionally, if the odds ratio for the CCO is smaller than the odds ratio for the BCO, it can be concluded that the CCO is stronger correlated with clinical outcome and therefore gives a better prediction than the BCO.
A logistic regression model may be used to determine the odds ratio. The model used is the same as the logistic regression model described above except that the fold change in the model is replaced by the resistance class. The coefficient for the resistance class that is obtained from the model is the log (odds ratio). The advantage of using this model is that the odds ratio estimates can be adjusted for the baseline viral load and the cPSS score of the background regimen.
The columns headed CCO Odds Ratio and BCO Odds Ratio represent the odds of being a responder in the group that is labeled resistance by the cutoffs divided by the odds of being a responder in the group that is labeled sensitive by the cutoffs. For example, if there are four non-responders and one responder in the resistant group, and four responders and two non-responders in the sensitive group, the odds of being a responder in the resistant group is 1:4=0.25 and the odds of being a responder in the sensitive group is 4:2=2. […] The further away that the odds ratio is from 1, the stronger the correlation between the resistance class and clinical outcome.
The separation in groups (resistance/sensitive) can be done based on clinical cutoffs or biological cutoffs. This means that odds ratios based on clinical cutoffs (CCO) and odds ratios based on biological cutoffs (BCO) can be compared. If the odds ratio for the CCO is smaller than the odds ratio for the BCO, it can be concluded that the CCO gives a better prediction than the BCO.
In practice, a logistic regression model is used to determine the odds ratio. The model used is similar to logistic regression model described earlier except that the fold change in the model is replaced by the resistance class. The coefficient for the resistance class that is obtained from the model is the log (odds ratio). The advantage of using this model is that the odds ratio estimates can be adjusted for the baseline viral load and the cPSS score of the background regimen. […] In this case, a larger odds ratio indicates a stronger correlation with clinical outcome.

Read-outs that look alike come from different tables or passages of the source.

As for `CC(C)OC(=O)OCOP(=O)(CO[C@H](C)Cn1cnc2c(N)ncnc21)OCOC(=O)OC(C)C.O=C(O)/C=C/C(=O)O` [TDF], the “Classification Tree Lower CO” value in assay [1] (Overall) is reported as 1.15; in assay [1] (Subgroup 1: PSS = 2, baseline Log (VL) = 4), 1.15; in assay [1] (Subgroup 2: PSS = 0, baseline Log (VL) = 4), 1.15; in assay [1] (Subgroup 3: PSS = 2, baseline Log (VL) = 5) it was 1.15. In assay [2] (test data, biological cutoffs), the “Test Data BCO Odds Ratio” value is recorded as 0.570. The “Test Data CCO Odds Ratio” value in assay [2] (test data, clinical cutoffs) is 0.228. In assay [2] (validation data, clinical cutoffs), the “Validation Data CCO Odds Ratio” value is 0.226.
